{"source": "the supplement of paper PMC10307832", "assay_in_all_cases": "relative viability (nuclei count vs DMSO), 5 days (fraction); higher = more cells survive", "key": {"[1]": {"compound": "COc1ncc(-c2ccc3nccc(-c4ccnnc4)c3c2)cc1NS(=O)(=O)c1ccc(F)cc1F [Omipalisib]", "procedure,_shortened": "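A plate was accepted only when its control CV was below 25% and the cells had doubled at least once. Viability is defined from nuclear counts as treated wells divided by vehicle wells, with the median taken across plates. That median covers lung cancer cell lines grown in 1536-well plates, dosed by pinning at five √10-spaced library-drug concentrations, and counted in MetaXpress from 4× Hoechst images after 5 days.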"}, "[2]": {"compound": "COc1ncc(-c2ccc3nccc(-c4ccnnc4)c3c2)cc1NS(=O)(=O)c1ccc(F)cc1F [Omipalisib] + O=C(c1cc(Cc2n[nH]c(=O)c3ccccc23)ccc1F)N1CCN(C(=O)C2CC2)CC1 [Olaparib] (partner 8 µM)", "procedure,_shortened": "(§1)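 Relative viability divides the nuclei count in treated wells by that in vehicle wells. Lung cancer cell lines were seeded in 1536-well plates, dosed by pin tool the next day, and fixed and stained after 5 days in one step with final 0.05% Triton X-100, 1% formaldehyde and 1 ug/ml Hoechst. Dosing was a single drug or a fixed anchor-drug dose plus five library-drug doses (not always all listed) in √10 steps, and values are medians of duplicate plates imaged at 4×.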"}, "[3]": {"compound": "COc1ncc(-c2ccc3nccc(-c4ccnnc4)c3c2)cc1NS(=O)(=O)c1ccc(F)cc1F [Omipalisib] + C[C@@H](Oc1cc(-c2cnn(C3CCNCC3)c2)cnc1N)c1c(Cl)ccc(F)c1Cl [Crizotinib] (partner 1 µM)", "procedure,_shortened": "as §1"}, "[4]": {"compound": "COc1ncc(-c2ccc3nccc(-c4ccnnc4)c3c2)cc1NS(=O)(=O)c1ccc(F)cc1F [Omipalisib] + O=C(CCCCCCC(=O)Nc1ccccc1)NO [Vorinostat] (partner 1 µM)", "procedure,_shortened": "as §1"}, "[5]": {"compound": "COc1ncc(-c2ccc3nccc(-c4ccnnc4)c3c2)cc1NS(=O)(=O)c1ccc(F)cc1F [Omipalisib] + CS(=O)(=O)CCNCc1ccc(-c2ccc3ncnc(Nc4ccc(OCc5cccc(F)c5)c(Cl)c4)c3c2)o1 [Lapatinib] (partner 2 µM)", "procedure,_shortened": "as §1"}, "[6]": {"compound": "COc1ncc(-c2ccc3nccc(-c4ccnnc4)c3c2)cc1NS(=O)(=O)c1ccc(F)cc1F [Omipalisib] + CC(C)C[C@H](NC(=O)[C@H](Cc1ccccc1)NC(=O)c1cnccn1)B(O)O [Bortezomib] (partner 0.002 µM)", "procedure,_shortened": "as §1"}, "[7]": {"compound": "COc1ncc(-c2ccc3nccc(-c4ccnnc4)c3c2)cc1NS(=O)(=O)c1ccc(F)cc1F [Omipalisib] + C[C@]1(O)C[C@@H](c2nc(-c3ccc4ccc(-c5ccccc5)nc4c3)c3c(N)nccn32)C1 [Linsitinib] (partner 1 µM)", "procedure,_shortened": "as §1"}, "[8]": {"compound": "COc1ncc(-c2ccc3nccc(-c4ccnnc4)c3c2)cc1NS(=O)(=O)c1ccc(F)cc1F [Omipalisib] + CS(=O)(=O)N1CCN(Cc2cc3nc(-c4cccc5[nH]ncc45)nc(N4CCOCC4)c3s2)CC1 [Pictilisib] (partner 1 µM)", "procedure,_shortened": "as §1"}, "[9]": {"compound": "COc1ncc(-c2ccc3nccc(-c4ccnnc4)c3c2)cc1NS(=O)(=O)c1ccc(F)cc1F [Omipalisib] + Cc1nc(NC(=O)N2CCC[C@H]2C(N)=O)sc1-c1ccnc(C(C)(C)C(F)(F)F)c1 [Alpelisib] (partner 2 µM)", "procedure,_shortened": "as §1"}, "[10]": {"compound": "COc1ncc(-c2ccc3nccc(-c4ccnnc4)c3c2)cc1NS(=O)(=O)c1ccc(F)cc1F [Omipalisib] + COc1cc2c(Oc3ccc(NC(=O)C4(C(=O)Nc5ccc(F)cc5)CC4)cc3F)ccnc2cc1OCCCN1CCOCC1 [Foretinib] (partner 0.25 µM)", "procedure,_shortened": "as §1"}, "[11]": {"compound": "COc1ncc(-c2ccc3nccc(-c4ccnnc4)c3c2)cc1NS(=O)(=O)c1ccc(F)cc1F [Omipalisib] + CC1(C)CCC(c2ccc(Cl)cc2)=C(CN2CCN(c3ccc(C(=O)NS(=O)(=O)c4ccc(N[C@H](CCN5CCOCC5)CSc5ccccc5)c(S(=O)(=O)C(F)(F)F)c4)cc3)CC2)C1 [Navitoclax] (partner 0.5 µM)", "procedure,_shortened": "as §1"}}}
{"cell line": "IA-LM", "values": [{"measurement": "relative viability", "setting": "[1]; 0.0003 µM", "value": 0.888}, {"measurement": "relative viability", "setting": "[1]; 0.003 µM", "value": 0.764}, {"measurement": "relative viability", "setting": "[1]; 0.03 µM", "value": 0.355}, {"measurement": "relative viability", "setting": "[2]; first compound 0.0003 µM", "value": 0.903}, {"measurement": "relative viability", "setting": "[2]; first compound 0.003 µM", "value": 0.85}, {"measurement": "relative viability", "setting": "[2]; first compound 0.03 µM", "value": 0.602}, {"measurement": "relative viability", "setting": "[3]; first compound 0.0003 µM", "value": 0.906}, {"measurement": "relative viability", "setting": "[3]; first compound 0.003 µM", "value": 0.682}, {"measurement": "relative viability", "setting": "[3]; first compound 0.03 µM", "value": 0.288}, {"measurement": "relative viability", "setting": "[4]; first compound 0.0003 µM", "value": 0.873}, {"measurement": "relative viability", "setting": "[4]; first compound 0.003 µM", "value": 0.916}, {"measurement": "relative viability", "setting": "[4]; first compound 0.03 µM", "value": 0.25}, {"measurement": "relative viability", "setting": "[5]; first compound 0.0003 µM", "value": 0.95}, {"measurement": "relative viability", "setting": "[5]; first compound 0.003 µM", "value": 0.703}, {"measurement": "relative viability", "setting": "[5]; first compound 0.03 µM", "value": 0.251}, {"measurement": "relative viability", "setting": "[6]; first compound 0.0003 µM", "value": 1.01}, {"measurement": "relative viability", "setting": "[6]; first compound 0.003 µM", "value": 0.818}, {"measurement": "relative viability", "setting": "[6]; first compound 0.03 µM", "value": 0.258}, {"measurement": "relative viability", "setting": "[7]; first compound 0.0003 µM", "value": 0.636}, {"measurement": "relative viability", "setting": "[7]; first compound 0.003 µM", "value": 0.571}, {"measurement": "relative viability", "setting": "[7]; first compound 0.03 µM", "value": 0.243}, {"measurement": "relative viability", "setting": "[8]; first compound 0.0003 µM", "value": 0.45}, {"measurement": "relative viability", "setting": "[8]; first compound 0.003 µM", "value": 0.317}, {"measurement": "relative viability", "setting": "[8]; first compound 0.03 µM", "value": 0.197}, {"measurement": "relative viability", "setting": "[9]; first compound 0.0003 µM", "value": 0.785}, {"measurement": "relative viability", "setting": "[9]; first compound 0.003 µM", "value": 0.793}, {"measurement": "relative viability", "setting": "[9]; first compound 0.03 µM", "value": 0.373}, {"measurement": "relative viability", "setting": "[10]; first compound 0.0003 µM", "value": 1.27}, {"measurement": "relative viability", "setting": "[10]; first compound 0.003 µM", "value": 0.997}, {"measurement": "relative viability", "setting": "[10]; first compound 0.03 µM", "value": 0.683}, {"measurement": "relative viability", "setting": "[11]; first compound 0.0003 µM", "value": 0.92}, {"measurement": "relative viability", "setting": "[11]; first compound 0.003 µM", "value": 0.847}, {"measurement": "relative viability", "setting": "[11]; first compound 0.03 µM", "value": 0.251}]}
